In ChEMBL document CHEMBL3885881, “DrugMatrix”:

Organism: Rattus norvegicus
Assay: DrugMatrix - Regimen: Daily Repeat
Assay type: toxicity, organism-based, Sprague-Dawley
Set-up: regimen Daily Repeat, gender Male, age 6-8 weeks
Conditions: in vivo, po, route oral GAVAGE, vehicle 100 % SALINE; for ABSOLUTE EOSINOPHIL / ABSOLUTE LYMPHOCYTE / ABSOLUTE MONOCYTE / ABSOLUTE SEGMENTED NEUTROPHIL / BASOPHIL / EOSINOPHIL / ERYTHROCYTE COUNT / HEMATOCRIT / HEMOGLOBIN / LEUKOCYTE COUNT / LYMPHOCYTE / MEAN CORPUSCULAR HEMOGLOBIN / MEAN CORPUSCULAR HEMOGLOBIN CONCENTRATION / MEAN CORPUSCULAR VOLUME / MONOCYTE / NEUTROPHIL / NUCLEATED RED BLOOD CELLS / PLATELET COUNT / ABSOLUTE BASOPHIL: tissue Blood; for ALANINE AMINOTRANSFERASE / ALBUMIN / ALKALINE PHOSPHATASE / ASPARTATE AMINOTRANSFERASE / BLOOD UREA NITROGEN / CARBON DIOXIDE / CHLORIDE / CHOLESTEROL / CREATINE PHOSPHOKINASE / CREATININE / GLUCOSE / LACTATE DEHYDROGENASE / LIPASE / PHOSPHORUS / POTASSIUM / SODIUM / TOTAL BILIRUBIN / TOTAL PROTEIN / URIC ACID: tissue Plasma
[1] = 29 mg/kg, 120 h, dose level Low, time 5 day
[2] = 200 mg/kg, 72 h, dose level High, time 3 day
[3] = 200 mg/kg, 120 h, dose level High, time 5 day

Cc1ccnc2c1NC(=O)c1cccnc1N2C1CC1 [NEVIRAPINE]
ABSOLUTE EOSINOPHIL [1]: 0 CELLS/uL | ABSOLUTE LYMPHOCYTE [1]: 5766.33 CELLS/uL | ABSOLUTE MONOCYTE [1]: 26.67 CELLS/uL | ABSOLUTE SEGMENTED NEUTROPHIL [1]: 340.33 CELLS/uL | BASOPHIL [1]: 0% | EOSINOPHIL [1]: 0% | ERYTHROCYTE COUNT [1]: 5.58 x10E6/uL | HEMATOCRIT [1]: 33.7% | HEMOGLOBIN [1]: 13.2 G/DL | LEUKOCYTE COUNT [1]: 6.13 x10E3/uL | LYMPHOCYTE [1]: 94.33% | MEAN CORPUSCULAR HEMOGLOBIN [1]: 23.7 pg | MEAN CORPUSCULAR HEMOGLOBIN CONCENTRATION [1]: 39.2 G/DL | MEAN CORPUSCULAR VOLUME [1]: 60.4 fL | MONOCYTE [1]: 0.33% | NEUTROPHIL [1]: 5.33% | NUCLEATED RED BLOOD CELLS [1]: 0 /100WBC | PLATELET COUNT [1]: 1219 x10E3/uL | ALANINE AMINOTRANSFERASE [1]: 55.67 u/L | ALBUMIN [1]: 4.23 G/DL | ALKALINE PHOSPHATASE [1]: 280.33 u/L | ASPARTATE AMINOTRANSFERASE [1]: 82.33 u/L | BLOOD UREA NITROGEN [1]: 15.33 mg/dL | CARBON DIOXIDE [1]: 34.33 mmol/L | CHLORIDE [1]: 98.67 MEQ/L | CHOLESTEROL [1]: 74.33 mg/dL | CREATINE PHOSPHOKINASE [1]: 403.67 u/L | CREATININE [1]: 0.39 mg/dL | GLUCOSE [1]: 132.33 mg/dL | LACTATE DEHYDROGENASE [1]: 98.67 u/L | LIPASE [1]: 11 u/L | PHOSPHORUS [1]: 10.8 mg/dL | POTASSIUM [1]: 6.38 MEQ/L | SODIUM [1]: 144.43 MEQ/L | TOTAL BILIRUBIN [1]: 0.17 mg/dL | TOTAL PROTEIN [1]: 5.7 G/DL | URIC ACID [1]: 0.87 mg/dL | ABSOLUTE BASOPHIL [2]: 0 CELLS/uL | ABSOLUTE EOSINOPHIL [2]: 0 CELLS/uL | ABSOLUTE LYMPHOCYTE [2]: 4383.33 CELLS/uL | ABSOLUTE MONOCYTE [2]: 11.67 CELLS/uL | ABSOLUTE SEGMENTED NEUTROPHIL [2]: 905 CELLS/uL | BASOPHIL [2]: 0% | EOSINOPHIL [2]: 0% | ERYTHROCYTE COUNT [2]: 5.28 x10E6/uL | HEMATOCRIT [2]: 32.53% | HEMOGLOBIN [2]: 12.53 G/DL | LEUKOCYTE COUNT [2]: 5.3 x10E3/uL | LYMPHOCYTE [2]: 83% | MEAN CORPUSCULAR HEMOGLOBIN [2]: 23.9 pg | MEAN CORPUSCULAR HEMOGLOBIN CONCENTRATION [2]: 38.7 G/DL | MEAN CORPUSCULAR VOLUME [2]: 61.8 fL | MONOCYTE [2]: 0.33% | NEUTROPHIL [2]: 16.67% | NUCLEATED RED BLOOD CELLS [2]: 0.67 /100WBC | PLATELET COUNT [2]: 1104 x10E3/uL | ALANINE AMINOTRANSFERASE [2]: 63 u/L | ALBUMIN [2]: 4.4 G/DL | ALKALINE PHOSPHATASE [2]: 260.67 u/L | ASPARTATE AMINOTRANSFERASE [2]: 84.67 u/L | BLOOD UREA NITROGEN [2]: 16.33 mg/dL | CARBON DIOXIDE [2]: 27.67 mmol/L | CHLORIDE [2]: 101.67 MEQ/L | CHOLESTEROL [2]: 85.33 mg/dL | CREATINE PHOSPHOKINASE [2]: 227 u/L | CREATININE [2]: 0.11 mg/dL | GLUCOSE [2]: 145 mg/dL | LACTATE DEHYDROGENASE [2]: 139.67 u/L | LIPASE [2]: 12.33 u/L | PHOSPHORUS [2]: 10.8 mg/dL | POTASSIUM [2]: 5.63 MEQ/L | SODIUM [2]: 147 MEQ/L | TOTAL BILIRUBIN [2]: 0.13 mg/dL | TOTAL PROTEIN [2]: 5.9 G/DL | URIC ACID [2]: 1.03 mg/dL | ABSOLUTE BASOPHIL [3]: 0 CELLS/uL | ABSOLUTE EOSINOPHIL [3]: 0 CELLS/uL | ABSOLUTE LYMPHOCYTE [3]: 5735 CELLS/uL | ABSOLUTE MONOCYTE [3]: 88 CELLS/uL | ABSOLUTE SEGMENTED NEUTROPHIL [3]: 443.67 CELLS/uL | BASOPHIL [3]: 0% | EOSINOPHIL [3]: 0% | ERYTHROCYTE COUNT [3]: 5.22 x10E6/uL | HEMATOCRIT [3]: 33.87% | HEMOGLOBIN [3]: 13.47 G/DL | LEUKOCYTE COUNT [3]: 6.27 x10E3/uL | LYMPHOCYTE [3]: 91.67% | MEAN CORPUSCULAR HEMOGLOBIN [3]: 25.83 pg | MEAN CORPUSCULAR HEMOGLOBIN CONCENTRATION [3]: 39.8 G/DL | MEAN CORPUSCULAR VOLUME [3]: 64.77 fL | MONOCYTE [3]: 1.33% | NEUTROPHIL [3]: 7% | NUCLEATED RED BLOOD CELLS [3]: 0.67 /100WBC | PLATELET COUNT [3]: 1370.67 x10E3/uL | ALANINE AMINOTRANSFERASE [3]: 55.67 u/L | ALBUMIN [3]: 4.03 G/DL | ALKALINE PHOSPHATASE [3]: 286 u/L | ASPARTATE AMINOTRANSFERASE [3]: 87 u/L | BLOOD UREA NITROGEN [3]: 13 mg/dL | CARBON DIOXIDE [3]: 33.67 mmol/L | CHLORIDE [3]: 99 MEQ/L | CHOLESTEROL [3]: 89.33 mg/dL | CREATINE PHOSPHOKINASE [3]: 578.67 u/L | CREATININE [3]: 0.38 mg/dL | GLUCOSE [3]: 136 mg/dL | LACTATE DEHYDROGENASE [3]: 142 u/L | LIPASE [3]: 10.33 u/L | PHOSPHORUS [3]: 10.57 mg/dL | POTASSIUM [3]: 6.07 MEQ/L | SODIUM [3]: 146.23 MEQ/L | TOTAL BILIRUBIN [3]: 0.13 mg/dL | TOTAL PROTEIN [3]: 6.13 G/DL | URIC ACID [3]: 0.63 mg/dL
